Results from US20170176439A1, “MARKERS AND THERAPEUTIC INDICATORS FOR GLIOBLASTOMA MULTIFORME (GBM)” (Institute for Systems Biology, priority 2014, published 2017).

Columns and labels:
U87 cell line = assay: d-SRM assays of GBMSig protein expression in U87 cell line after TGF-β vs TGF-β-inhibitor treatment; assay type: cell-based
Procedure: Novel TGF-β responsive elements were identified among GBMSig through experimental validation. […] U87 cells were treated with TGF-β1 or its inhibitor alone or sequentially with inhibitor followed by TGF-β1. Changes in expressions of GBMSig proteins following such treatments were measured by SRM assays.
(§1) To identify markers for subjects that may benefit from this treatment, astrocytoma cell line U87 was serum starved overnight and treated with 10 ng/ml TGF-β1 for 40 hrs. […] However, as serum contains many essential elements and growth factors, the effect of serum starvation on cells might not be specific to the inhibition of TGF-β signaling. Therefore, we employed a TGF-β-inhibitor (SB 431542) known to interfere with the C-terminal phosphorylation of SMAD2. […] Thus in subsequent SRM analysis, TGF-β-inhibitor was used instead of serum starving.

U-87 cells = conditions: U-87, flow cytometry
Procedure: In an alternate assay, six GBMSig proteins viz. SLC16A1, MRC2, CD47, SLC16A3, HMOX1, and CD97 were tested as downstream factors of TGF-β signaling by flow cytometry. TGF-β or TGF-β inhibitor treated intact U-87 cells were analyzed by flow cytometry and the ratio of the respective GBMSig expression in response to TGF-β1 over its inhibitor was obtained.

[1] = system: primary GBM cells from SN143 tumor tissues; assay: Flow cytometry of GBMSig expression in primary GBM cells from SN143 tumor tissue with TGF-β or its inhibitor; assay type: cell-based
Procedure: (§2) The expression of the selected GBMSig proteins responsive to TGF-β viz. SLC16A1, HMOX1, MRC2, SLC16A3, CD47, and CD97 was also tested in primary GBM cells from SN143 tumor tissues in the presence of TGF-β or its inhibitor by flow cytometry.

[2] = system: C-terminal phosphorylation of SMAD2; assay: C-terminal phosphorylation of SMAD2 in U87 cells; assay type: cell-based
Procedure: as §1

[3] = system: isogenic cell lines of U87 (EGFR, EGFRVIII, PTEN); assay: Cell-surface GBMSig expression in response to TGF-β in U87 isogenic cell lines; assay type: cell-based
Procedure: Isogenic cell lines of U87 where key proliferative genes such as EGFR and EGFRVIII are overexpressed alone or in combination with PTEN were tested for molecular responsiveness of isogenic cell lines towards TGF-β treatment. In EGFR and EGFRVIII isogenic cell lines, there was elevated surface expression of SLC16A1 and HMOX1 in response to TGF-β treatment. PTEN expression, however, inhibited this effect, indicating possible involvement of a tumor suppressor PTEN in modulating the surface expression of these proteins in GBM. On the other hand, MRC2 and CD47 were up regulated in response to TGF-β treatment when PTEN was overexpressed.
Commonly mutated GBM genes include EGFR, EGFRVIII, and PTEN. Four isogenic cell lines of U87 in which these genes are expressed alone or in combinations of EGFRVIII and PTEN or EGFR and PTEN via a stably integrated retroviral vector were used (Gini, B., et al., Clin Cancer Res. (2013) 19:5722-5732).
There was an increase in the cell-surface expression of CD47, SLC16A3, MRC2, HMOX1 and SLC16A1 in response to TGF-β in all U87 isogenic cell lines similar to that of the parental cell line.

[4] = system: healthy neural stem cells (NSCs); assay: GBMSig cell-surface expression in healthy NSCs with TGF-β1 or inhibitor; assay type: cell-based
Procedure: [The source words this procedure for another cell line and reports this cell line under the same test.] as §2, with “cytometry. […] EGFR, EGFRVIII, and PTEN altered in GBM can create further heterogeneities in TGF-β responsiveness as observed through the expression of various GBMSig proteins.” for “cytometry.”

[5] = primary GBM cells from SN143 tissue, flow cytometry
[6] = U87 isogenic overexpressing EGFR
[7] = U87 isogenic overexpressing EGFRVIII

## TGF-β1: TGF-β1, inducer of epithelial to mesenchymal transition, used at 10 ng/ml to treat cells
U87 cell line
  CD109 expression following TGF-β treatment relative to TGF-β-inhibitor alone: 2.09 fold
  CLCC1 expression following TGF-β treatment relative to TGF-β-inhibitor alone: 2.26 fold
  CRTAP expression following TGF-β treatment relative to TGF-β-inhibitor alone: 2.12 fold
  DDR2 expression following TGF-β treatment relative to TGF-β-inhibitor alone: 3.53 fold
  ITGA7 expression following TGF-β treatment relative to TGF-β-inhibitor alone: 9.45 fold
  MGST1 expression following TGF-β treatment relative to TGF-β-inhibitor alone: 2.77 fold
  MRC2 expression following TGF-β treatment relative to TGF-β-inhibitor alone: 3.06 fold
  PTGFRN expression following TGF-β treatment relative to TGF-β-inhibitor alone: 2.18 fold
  SLC16A1 expression following TGF-β treatment relative to TGF-β-inhibitor alone: 2.05 fold
  TGFBI expression following TGF-β treatment relative to TGF-β-inhibitor alone: 10.54 fold
  TNC expression following TGF-β treatment relative to TGF-β-inhibitor alone: 6.55 fold
  enrichment of CD47, VCAM1, MYOF, ABCA1, CD44, S100A10, CA12 and SLC16A3 on TGF-β treatment vs. TGF-β-inhibitor treatment: > 1.3 fold
  expression of CD97, SCAMP3, PDIA4, CD99, ABCA1, TMX1, RTN4 and CD151 following TGF-β treatment in comparison to inhibitor treatment: remained largely unchanged
  expression of the 11 proteins when TGF-β-inhibitor treated cells were retreated with TGF-β: overexpressed
U87 cell line; vs inhibitor treatment
  expression of ASPH, NRP1, CD276 and HMOX1 following TGF-β treatment: relatively reduced
U-87 cells
  increase of ratio of cell-surface CD47, TGF-β over TGF-β inhibitor: 40%
  increase of ratio of cell-surface HMOX1, TGF-β over TGF-β inhibitor: 20%
  increase of ratio of cell-surface MRC2, TGF-β over TGF-β inhibitor: 25%
  increase of ratio of cell-surface SLC16A1, TGF-β over TGF-β inhibitor: 20%
  increase of ratio of cell-surface SLC16A3, TGF-β over TGF-β inhibitor: 30%
U-87 cells; essentially no change
  increase of ratio of cell-surface CD97, TGF-β over TGF-β inhibitor: 1.1 fold
[1]; [5]
  expression of HMOX1 when treated with TGF-β1 compared to its inhibitor: 0.77 fold
  expression of MRC2 when treated with TGF-β1 compared to its inhibitor: 1.62 fold
  expression of SLC16A1 when treated with TGF-β1 compared to its inhibitor: 0.79 fold
[2]; U87 serum starved overnight, 10 ng/ml TGF-β1 for 40 hrs, in comparison to cells in serum-free media
  C-terminal phosphorylation of SMAD2: increased
[3]; EGFR+PTEN cells
  expression of HMOX1 in response to TGF-β: 1.058 fold
  expression of SLC16A1 in response to TGF-β: 0.724 fold
[3]; EGFRVIII alone
  expression of CD97: 0.75±0.010 fold
  expression of SLC16A3: 0.97 fold
[3]; EGFRVIII+PTEN cells
  expression of CD97: 1.51 fold
  expression of HMOX1 in response to TGF-β: 1.48 fold
  expression of SLC16A1 in response to TGF-β: 1.19 fold
  expression of SLC16A3: 1.3 fold
[3]; [6]
  increase in expression of HMOX1 in response to TGF-β compared to the parental cell line: 2.69 fold
  increase in expression of SLC16A1 in response to TGF-β compared to the parental cell line: 1.5±0.028 fold
[3]; [7]
  increase in expression of HMOX1 in response to TGF-β compared to the parental cell line: 2.13 fold
  increase in expression of SLC16A1 in response to TGF-β compared to the parental cell line: 1.75 fold
[3]; all U87 isogenic cell lines, similar to parental cell line
  cell-surface expression of CD47, SLC16A3, MRC2, HMOX1 and SLC16A1 in response to TGF-β: increase
[3]; when PTEN was overexpressed
  MRC2 and CD47 expression in response to TGF-β treatment: up regulated
[4]; NSCs
  changes in cell-surface expression of SLC16A1, HMOX1, MRC2, CD47, SLC16A3 and CD97 in response to TGF-β treatment: no significant changes
[4]; healthy NSCs
  effect on SLC16A1, HMOX1 and CD97 expression: little or no effect

## NC(=O)c1ccc(-c2nc(-c3ccc4c(c3)OCO4)c(-c3ccccn3)[nH]2)cc1 [SB 431542]
[1]; SN143 tumor-derived GCSC populations
  increase in surface expression of HMOX1 in response to TGF-β-inhibitor treatment relative to TGF-β treatment: 30%
[2]; cells in normal media (DMEM+10% FCS) supplemented with inhibitor
  C-terminal phosphorylation of SMAD2: dampened or diminished
[4]; NSCs
  expression of MRC2, CD47, SLC16A3 and CD97 after TGF-β-inhibitor treatment: increased expression
[4]; healthy NSCs
  effect on SLC16A1, HMOX1 and CD97 expression: little or no effect
  expression of CD47 in response to TGF-β-inhibitor treatment compared to TGF-β1 treatment: 0.61 fold
  expression of MRC2 in response to TGF-β-inhibitor treatment compared to TGF-β1 treatment: 0.19 fold
